Assay: Repeat dose tissue distribution study (QWBA, LSC of blood and plasma), 15 daily doses
Type: in vivo, Sprague-Dawley rats
Procedure: Three male rats were administered [^14C]PPI-1011 at 100 mg/kg (100 μCi/kg) once daily for 15 days. One rat was sacrificed at each of the following time points after the administration of the day 15 dose: 24, 48, and 96 h. Terminal blood was collected by cardiac puncture directly into tubes with K2EDTA, an aliquot was stored at 4°C until LSC was performed for radioactivity, while the remaining blood was processed to plasma and stored at −20°C until LSC. Following blood collection, the carcasses were frozen in a cold bath with hexanes and dry ice for at least 8 min and then dried and stored at −70°C for at least 12 h. The carcasses were transferred to a −20°C freezer for at least 12 h before embedding.
QWBA was used to determine radioactivity concentrations in the caecum (contents and mucosa), large intestine (contents and mucosa), small intestine (contents and mucosa), stomach (contents and mucosa), brain, choroid plexus, spinal cord, bone, skin, adrenal gland, pineal body, pituitary gland, thyroid gland, liver, kidney (cortex, medulla and whole kidney), urinary bladder (contents and wall), brown fat, white fat, eye (lens, uveal tract and whole eye), epididymis, prostate gland, testis, ovary, uterus, lung, exorbital lachrymal gland, Harderian gland, pancreas, salivary gland, skeletal muscle, myocardium, cardiac blood, bone marrow, lymph node, spleen, and thymus. As well, LSC was used to determine the total radioactivity in the whole blood and plasma.
The whole-body cryosectioning technique described by ([Ullberg, 1977]) was the basis for embedding and cryosectioning the rats assigned to this study. Each frozen carcass was shaved, and then the limbs and tail were removed prior to embedding. Chilled (4°C) 3% CMC (low viscosity) was utilized to provide a firm support of reinforced ice around each rat and for a secure attachment to the microtome stage. Upon thorough freezing of the embedding medium surrounding each rat, the frozen CMC block was removed from the freezing bath and four 3/8 inch holes were drilled into the block. One cryosection quality control standard (CQCS) was prepared with a known amount of radioactivity and at least 1 ml aliquots were added to each of the four drilled holes. CQCS data were utilized to evaluate the overall performance of the QWBA assay.
Each frozen rat was sagittally trimmed (50–100 μm) at −20°C until exposure of a few target tissues employing a Leica Cryomacrocut heavy-duty microtome (Leica Microsystems Inc.,). Disposable stainless steel Feather type H45L knives (Feather Safety Razor Co., Ltd.) were utilized for trimming and sectioning each frozen rat. Several thinner sections (50 μm) were discarded prior to obtaining multiple 50 μm sections at various cryosectioning levels for QWBA analysis. Upon the collection of at least 60 target tissues in multiple cryosectioning levels, the cryosections were kept in the Cryomacrocut cryochamber for a minimum of 18 h for dehydration depending upon the number of cryosections within the cryochamber. After dehydration was complete, the cryosections were transferred to ambient temperature for processing. Mounted whole-body cryosections and a set of 15 standards were sandwiched between a standard phosphor screen and an exposure cassette. All cryosections were exposed to the phosphor screen for 4-days in a cabinet protected with lead prior to scanning using a Typhoon PhosphorImager (Cytiva). MCID™ Analysis software (InterFocus Ltd.) was utilized to generate a calibration curve of the STD nominal concentrations (nCi/g) versus PhosphorImager response (counts/μm^2 minus background) by weighted (1/x) linear regression analysis ([Potchoiba et al., 1995]; [Potchoiba et al., 1998]). The linear regression curve was then utilized to determine the concentration (nCi/g) of total radioactivity in whole-body tissues and blood. Radioactivity concentrations were expressed as μg Eq/g based on the specific activity of the compound in the final dose formulations. […]

[1] = 24 hr post 15 daily oral 100 mg/kg
[2] = 48 hr post 15 daily oral 100 mg/kg

For `CC/C=C\C/C=C\C/C=C\C/C=C\C/C=C\C/C=C\CCC(=O)O[C@H](CO[14CH2]CCCCCCCCCCCCCCC)COC(=O)CCCCC1CCSS1` (stereo partly shown) [[^14C]PPI-1011], the “Mean percentage radioactivity (normalized by tissue) at 96 h relative to the 24-h timepoint” value (15 daily doses) was 75%, the “Radioactivity in urine within the urinary bladder” value (15 daily doses) was “no detection of radioactivity” and the “Time of highest blood concentration” value (15 daily doses) was 24 HPD. The “Time of highest levels, adrenal gland” value (15 daily doses) was 48 HPD, the “Time of highest levels, cerebrum” value (15 daily doses) was 96 HPD and the “Time of highest levels, medulla oblongata” value (15 daily doses) was 96 HPD. The “Time of highest levels, nasal turbinates” value (15 daily doses) was 48 HPD, the “Time of highest levels, spinal cord” value (15 daily doses) was 96 HPD and the “Time of highest peak concentration, bladder wall” value (15 daily doses) was 48 HPD. The “Time of highest peak concentration, brown adipose” value (15 daily doses) was 24 HPD, the “Time of highest peak concentration, cecum” value (15 daily doses) was 24 HPD and the “Time of highest peak concentration, esophagus” value (15 daily doses) was 24 HPD. For the same compound, the “Time of highest peak concentration, gastric mucosa” value (15 daily doses) was 24 HPD, the “Time of highest peak concentration, large intestines” value (15 daily doses) was 24 HPD and the “Time of highest peak concentration, ocular lens” value (15 daily doses) was 96 HPD. For the same compound, the “Time of highest peak concentration, prostate” value (15 daily doses) was 96 HPD, the “Time of highest peak concentration, seminal vesicles” value (15 daily doses) was 24 HPD and the “Time of highest peak concentration, small intestines” value (15 daily doses) was 24 HPD. The “Time of highest peak concentration, stomach” value (15 daily doses) was 24 HPD, the “Time of highest peak concentration, subcutaneous adipose” value (15 daily doses) was 48 HPD and the “Time of highest peak concentration, testis” value (15 daily doses) was 24 HPD. For the same compound, the “Time of highest peak concentration, uveal tract” value (15 daily doses) was 24 HPD, the “Time of highest peak concentration, visceral adipose” value (15 daily doses) was 48 HPD and the “Time of highest peak concentration, vitreous body” value (15 daily doses) was 24 HPD. For the same compound, the “Time of highest peak concentration, whole eye” value (15 daily doses) was 24 HPD, the “Blood:plasma concentration ratio” value (24 HPD, 15 daily doses) was 2.31 and the “Blood:plasma concentration ratio” value (48 HPD, 15 daily doses) was 2.86. The “Blood:plasma concentration ratio” value (96 HPD, 15 daily doses) was 4.23, the “Radioactivity concentration, Adipose - Brown” value [1] was 2211 μg equivalents/g and the “Radioactivity concentration, Adipose - Brown (Vessel Wall)” value [1] was 1423 μg equivalents/g. For the same compound, the “Radioactivity concentration, Adipose - Subcutaneous” value [1] was 1316 μg equivalents/g, the “Radioactivity concentration, Adipose - Visceral” value [1] was 1402 μg equivalents/g and the “Radioactivity concentration, Adrenal Gland” value [1] was 1830 μg equivalents/g. For the same compound, the “Radioactivity concentration, Bladder Wall” value [1] was 102 μg equivalents/g, the “Radioactivity concentration, Blood - QWBA” value [1] was 55.0 μg equivalents/g and the “Radioactivity concentration, Bone Marrow” value [1] was 160 μg equivalents/g. For the same compound, the “Radioactivity concentration, Bone Surface” value [1] was 11.6 μg equivalents/g, the “Radioactivity concentration, Cecum” value [1] was 300 μg equivalents/g and the “Radioactivity concentration, Cerebellum” value [1] was 57.8 μg equivalents/g. For the same compound, the “Radioactivity concentration, Cerebrum” value [1] was 45.7 μg equivalents/g, the “Radioactivity concentration, Choroid Plexus” value [1] was 186 μg equivalents/g and the “Radioactivity concentration, Colliculus” value [1] was 68.3 μg equivalents/g. For the same compound, the “Radioactivity concentration, Diaphragm” value [1] was 204 μg equivalents/g, the “Radioactivity concentration, Esophagus” value [1] was 161 μg equivalents/g and the “Radioactivity concentration, Exorbital Lacrimal Gland” value [1] was 98.0 μg equivalents/g. The “Radioactivity concentration, Gastric Mucosa” value [1] was 415 μg equivalents/g, the “Radioactivity concentration, Harderian Gland” value [1] was 113 μg equivalents/g and the “Radioactivity concentration, Intra-Orbital Lacrimal Gland” value [1] was 100 μg equivalents/g. The “Radioactivity concentration, Kidney” value [1] was 304 μg equivalents/g, the “Radioactivity concentration, Large Intestines” value [1] was 255 μg equivalents/g and the “Radioactivity concentration, Liver” value [1] was 412 μg equivalents/g. The “Radioactivity concentration, Lung” value [1] was 217 μg equivalents/g, the “Radioactivity concentration, Lymph Node” value [1] was 347 μg equivalents/g and the “Radioactivity concentration, Medulla Oblongata” value [1] was 51.0 μg equivalents/g. For the same compound, the “Radioactivity concentration, Muscle” value [1] was 115 μg equivalents/g, the “Radioactivity concentration, Myocardium” value [1] was 292 μg equivalents/g and the “Radioactivity concentration, Nasal Turbinates” value [1] was 180 μg equivalents/g. For the same compound, the “Radioactivity concentration, Ocular - Lens” value [1] was 5.82 μg equivalents/g, the “Radioactivity concentration, Ocular - Uveal Tract” value [1] was 105 μg equivalents/g and the “Radioactivity concentration, Ocular - Vitreous Body” value [1] was 2.55 μg equivalents/g. For the same compound, the “Radioactivity concentration, Ocular - Whole Eye” value [1] was 22.7 μg equivalents/g, the “Radioactivity concentration, Olfactory Bulb” value [1] was 47.8 μg equivalents/g and the “Radioactivity concentration, Pancreas” value [1] was 355 μg equivalents/g. The “Radioactivity concentration, Parotid Gland” value [1] was 296 μg equivalents/g, the “Radioactivity concentration, Pineal Gland” value [1] was 230 μg equivalents/g and the “Radioactivity concentration, Pituitary Gland” value [1] was 266 μg equivalents/g. For the same compound, the “Radioactivity concentration, Prostate” value [1] was 74.6 μg equivalents/g, the “Radioactivity concentration, Renal Cortex” value [1] was 323 μg equivalents/g and the “Radioactivity concentration, Renal Medulla” value [1] was 238 μg equivalents/g. For the same compound, the “Radioactivity concentration, Salivary Gland” value [1] was 308 μg equivalents/g, the “Radioactivity concentration, Seminal Vesicles” value [1] was 63.2 μg equivalents/g and the “Radioactivity concentration, Skin - Non-Pigmented” value [1] was 161 μg equivalents/g. The “Radioactivity concentration, Small Intestines” value [1] was 420 μg equivalents/g, the “Radioactivity concentration, Spinal Cord” value [1] was 46.8 μg equivalents/g and the “Radioactivity concentration, Spleen” value [1] was 319 μg equivalents/g. For the same compound, the “Radioactivity concentration, Stomach” value [1] was 133 μg equivalents/g, the “Radioactivity concentration, Testis” value [1] was 70.3 μg equivalents/g and the “Radioactivity concentration, Thalamus” value [1] was 45.4 μg equivalents/g. For the same compound, the “Radioactivity concentration, Thymus” value [1] was 153 μg equivalents/g, the “Radioactivity concentration, Thyroid” value [1] was 373 μg equivalents/g and the “Radioactivity concentration, Whole Brain” value [1] was 48.8 μg equivalents/g. The “Radioactivity concentration, Adipose - Brown” value [2] was 1917 μg equivalents/g, the “Radioactivity concentration, Adipose - Brown (Vessel Wall)” value [2] was 1017 μg equivalents/g and the “Radioactivity concentration, Adipose - Subcutaneous” value [2] was 1498 μg equivalents/g. For the same compound, the “Radioactivity concentration, Adipose - Visceral” value [2] was 1500 μg equivalents/g, the “Radioactivity concentration, Adrenal Gland” value [2] was 2346 μg equivalents/g and the “Radioactivity concentration, Bladder Wall” value [2] was 108 μg equivalents/g. For the same compound, the “Radioactivity concentration, Blood - QWBA” value [2] was 34.3 μg equivalents/g, the “Radioactivity concentration, Bone Marrow” value [2] was 113 μg equivalents/g and the “Radioactivity concentration, Bone Surface” value [2] was 7.66 μg equivalents/g. For the same compound, the “Radioactivity concentration, Cecum” value [2] was 95.7 μg equivalents/g, the “Radioactivity concentration, Cerebellum” value [2] was 54.9 μg equivalents/g and the “Radioactivity concentration, Cerebrum” value [2] was 39.9 μg equivalents/g. The “Radioactivity concentration, Choroid Plexus” value [2] was 131 μg equivalents/g.

Source: PMC9081329, “Pharmacokinetics, Mass Balance, Excretion, and Tissue Distribution of Plasmalogen Precursor PPI-1011” (Frontiers in Cell and Developmental Biology, 2022)
